Laboratory results published in US8192962B2, “Processes for detecting toxic substances” (Daikin Industries, Ltd., priority 2001, dated 2012).

Tested on: Metabolism protein genes
Test: DNA chip mRNA expression in yeast, metabolism protein genes (Table 7)
Format: cell-based, Saccharomyces cerevisiae S288C
Method in brief: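 Untreated cultures served as reference for log-phase S288C yeast given a growth-inhibiting, non-lethal toxicant dose for 2 h at 25° C. in YPD. Gene expression was measured on a whole-genome DNA chip from Cy3/Cy5-labeled cDNA.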

## S=C([S-])NCCNC(=S)[S-].[Zn+2] [(11), zinc N,N′-ethylenebis(dithiocarbamate)]
Yeast gene YAL012W
  The level of expressed mRNA in the presence of chemical substance/The level of expressed mRNA in the absence of chemical substance: 4.0
Yeast gene YAL038W
  The level of expressed mRNA in the presence of chemical substance/The level of expressed mRNA in the absence of chemical substance: 1.0
Yeast gene YBR003W
  level of expressed mRNA in the presence/in the absence of chemical substance: 1.3
Yeast gene YBR011C
  level of expressed mRNA in the presence/in the absence of chemical substance: 1.7
Yeast gene YBR020W
  level of expressed mRNA in the presence/in the absence of chemical substance: 1.0
Yeast gene YBR023C
  The level of expressed mRNA in the presence of chemical substance/The level of expressed mRNA in the absence of chemical substance: 0.9
Yeast gene YBR029C
  The level of expressed mRNA in the presence of chemical substance/The level of expressed mRNA in the absence of chemical substance: 0.7
Yeast gene YBR183W
  The level of expressed mRNA in the presence of chemical substance/The level of expressed mRNA in the absence of chemical substance: 1.9
Yeast gene YBR222C
  The level of expressed mRNA in the presence of chemical substance/The level of expressed mRNA in the absence of chemical substance: 1.3
Yeast gene YBR256C
  The level of expressed mRNA in the presence of chemical substance/The level of expressed mRNA in the absence of chemical substance: 3.2
Yeast gene YCL009C
  The level of expressed mRNA in the presence of chemical substance/The level of expressed mRNA in the absence of chemical substance: 1.5
Yeast gene YCL064C
  The level of expressed mRNA in the presence of chemical substance/The level of expressed mRNA in the absence of chemical substance: 1.8
Yeast gene YCR010C
  level of expressed mRNA in the presence/in the absence of chemical substance: 1.1
Yeast gene YCR034W
  level of expressed mRNA in the presence/in the absence of chemical substance: 0.8
Yeast gene YCR048W
  The level of expressed mRNA in the presence of chemical substance/The level of expressed mRNA in the absence of chemical substance: 1.2
Yeast gene YCR098C
  The level of expressed mRNA in the presence of chemical substance/The level of expressed mRNA in the absence of chemical substance: 1.3
Yeast gene YDR019C
  The level of expressed mRNA in the presence of chemical substance/The level of expressed mRNA in the absence of chemical substance: 1.8
Yeast gene YDR050C
  level of expressed mRNA in the presence/in the absence of chemical substance: 2.0
Yeast gene YDR073W
  level of expressed mRNA in the presence/in the absence of chemical substance: 1.0
Yeast gene YDR123C
  level of expressed mRNA in the presence/in the absence of chemical substance: 0.6
Yeast gene YDR178W
  level of expressed mRNA in the presence/in the absence of chemical substance: 2.0
Yeast gene YDR277C
  level of expressed mRNA in the presence/in the absence of chemical substance: 1.2
Yeast gene YDR284C
  level of expressed mRNA in the presence/in the absence of chemical substance: 1.3
Yeast gene YDR345C
  level of expressed mRNA in the presence/in the absence of chemical substance: 1.5
Yeast gene YDR380W
  The level of expressed mRNA in the presence of chemical substance/The level of expressed mRNA in the absence of chemical substance: 0.4
Yeast gene YDR400W
  level of expressed mRNA in the presence/in the absence of chemical substance: 1.3
Yeast gene YDR408C
  level of expressed mRNA in the presence/in the absence of chemical substance: 1.7
Yeast gene YDR483W
  level of expressed mRNA in the presence/in the absence of chemical substance: 1.4
Yeast gene YDR497C
  The level of expressed mRNA in the presence of chemical substance/The level of expressed mRNA in the absence of chemical substance: 0.7
Yeast gene YDR502C
  The level of expressed mRNA in the presence of chemical substance/The level of expressed mRNA in the absence of chemical substance: 1.3
Yeast gene YDR516C
  The level of expressed mRNA in the presence of chemical substance/The level of expressed mRNA in the absence of chemical substance: 2.8
Yeast gene YEL063C
  level of expressed mRNA in the presence/in the absence of chemical substance: 0.8
Yeast gene YER015W
  level of expressed mRNA in the presence/in the absence of chemical substance: 1.0
Yeast gene YER026C
  The level of expressed mRNA in the presence of chemical substance/The level of expressed mRNA in the absence of chemical substance: 0.9
Yeast gene YER053C
  The level of expressed mRNA in the presence of chemical substance/The level of expressed mRNA in the absence of chemical substance: 2.4
Yeast gene YER069W
  The level of expressed mRNA in the presence of chemical substance/The level of expressed mRNA in the absence of chemical substance: 1.5
Yeast gene YER081W
  level of expressed mRNA in the presence/in the absence of chemical substance: 1.1
Yeast gene YER096W
  The level of expressed mRNA in the presence of chemical substance/The level of expressed mRNA in the absence of chemical substance: 1.1
Yeast gene YER120W
  level of expressed mRNA in the presence/in the absence of chemical substance: 1.1
Yeast gene YER178W
  The level of expressed mRNA in the presence of chemical substance/The level of expressed mRNA in the absence of chemical substance: 2.5
Yeast gene YFL011W
  level of expressed mRNA in the presence/in the absence of chemical substance: 2.1
Yeast gene YFL014W
  The level of expressed mRNA in the presence of chemical substance/The level of expressed mRNA in the absence of chemical substance: 5.0
Yeast gene YFL030W
  The level of expressed mRNA in the presence of chemical substance/The level of expressed mRNA in the absence of chemical substance: 5.4
Yeast gene YFL031W
  The level of expressed mRNA in the presence of chemical substance/The level of expressed mRNA in the absence of chemical substance: 1.2
Yeast gene YFL056C
  The level of expressed mRNA in the presence of chemical substance/The level of expressed mRNA in the absence of chemical substance: 68.3
Yeast gene YFL057C
  The level of expressed mRNA in the presence of chemical substance/The level of expressed mRNA in the absence of chemical substance: 27.7
Yeast gene YFR015C
  The level of expressed mRNA in the presence of chemical substance/The level of expressed mRNA in the absence of chemical substance: 3.9
Yeast gene YFR047C
  The level of expressed mRNA in the presence of chemical substance/The level of expressed mRNA in the absence of chemical substance: 2.3
Yeast gene YGL012W
  level of expressed mRNA in the presence/in the absence of chemical substance: 0.6
Yeast gene YGL022W
  The level of expressed mRNA in the presence of chemical substance/The level of expressed mRNA in the absence of chemical substance: 0.8
Yeast gene YGL115W
  level of expressed mRNA in the presence/in the absence of chemical substance: 1.0
Yeast gene YGL126W
  The level of expressed mRNA in the presence of chemical substance/The level of expressed mRNA in the absence of chemical substance: 1.0
Yeast gene YGL205W
  level of expressed mRNA in the presence/in the absence of chemical substance: 0.4
Yeast gene YGL209W
  The level of expressed mRNA in the presence of chemical substance/The level of expressed mRNA in the absence of chemical substance: 0.8
Yeast gene YGL248W
  The level of expressed mRNA in the presence of chemical substance/The level of expressed mRNA in the absence of chemical substance: 1.0
Yeast gene YGR037C
  The level of expressed mRNA in the presence of chemical substance/The level of expressed mRNA in the absence of chemical substance: 1.4
Yeast gene YGR055W
  The level of expressed mRNA in the presence of chemical substance/The level of expressed mRNA in the absence of chemical substance: 1.5
Yeast gene YGR096W
  level of expressed mRNA in the presence/in the absence of chemical substance: 0.8
Yeast gene YGR191W
  level of expressed mRNA in the presence/in the absence of chemical substance: 1.6
Yeast gene YGR194C
  The level of expressed mRNA in the presence of chemical substance/The level of expressed mRNA in the absence of chemical substance: 0.7
Yeast gene YGR204W
  level of expressed mRNA in the presence/in the absence of chemical substance: 2.1
Yeast gene YGR256W
  The level of expressed mRNA in the presence of chemical substance/The level of expressed mRNA in the absence of chemical substance: 2.7
Yeast gene YGR282C
  The level of expressed mRNA in the presence of chemical substance/The level of expressed mRNA in the absence of chemical substance: 1.5
Yeast gene YGR288W
  level of expressed mRNA in the presence/in the absence of chemical substance: 1.3
Yeast gene YHR025W
  level of expressed mRNA in the presence/in the absence of chemical substance: 2.1
Yeast gene YHR111W
  The level of expressed mRNA in the presence of chemical substance/The level of expressed mRNA in the absence of chemical substance: 1.9
Yeast gene YHR123W
  level of expressed mRNA in the presence/in the absence of chemical substance: 1.2
Yeast gene YHR137W
  The level of expressed mRNA in the presence of chemical substance/The level of expressed mRNA in the absence of chemical substance: 0.6
Yeast gene YHR174W
  The level of expressed mRNA in the presence of chemical substance/The level of expressed mRNA in the absence of chemical substance: 1.4
Yeast gene YHR176W
  The level of expressed mRNA in the presence of chemical substance/The level of expressed mRNA in the absence of chemical substance: 1.2
Yeast gene YHR210C
  level of expressed mRNA in the presence/in the absence of chemical substance: 1.5
Yeast gene YIL006W
  level of expressed mRNA in the presence/in the absence of chemical substance: 1.0
Yeast gene YIL045W
  The level of expressed mRNA in the presence of chemical substance/The level of expressed mRNA in the absence of chemical substance: 1.2
Yeast gene YIL107C
  The level of expressed mRNA in the presence of chemical substance/The level of expressed mRNA in the absence of chemical substance: 0.9
Yeast gene YIL154C
  The level of expressed mRNA in the presence of chemical substance/The level of expressed mRNA in the absence of chemical substance: 1.2
Yeast gene YIL155C
  The level of expressed mRNA in the presence of chemical substance/The level of expressed mRNA in the absence of chemical substance: 1.3
Yeast gene YIL167W
  The level of expressed mRNA in the presence of chemical substance/The level of expressed mRNA in the absence of chemical substance: 1.9
Yeast gene YIR017C
  The level of expressed mRNA in the presence of chemical substance/The level of expressed mRNA in the absence of chemical substance: 4.2
Yeast gene YIR034C
  The level of expressed mRNA in the presence of chemical substance/The level of expressed mRNA in the absence of chemical substance: 3.0
Yeast gene YIR036C
  The level of expressed mRNA in the presence of chemical substance/The level of expressed mRNA in the absence of chemical substance: 2.8
Yeast gene YJL031C
  The level of expressed mRNA in the presence of chemical substance/The level of expressed mRNA in the absence of chemical substance: 1.9
Yeast gene YJL068C
  The level of expressed mRNA in the presence of chemical substance/The level of expressed mRNA in the absence of chemical substance: 3.2
Yeast gene YJL088W
  The level of expressed mRNA in the presence of chemical substance/The level of expressed mRNA in the absence of chemical substance: 0.9
Yeast gene YJL099W
  The level of expressed mRNA in the presence of chemical substance/The level of expressed mRNA in the absence of chemical substance: 0.9
Yeast gene YJL121C
  level of expressed mRNA in the presence/in the absence of chemical substance: 1.1
Yeast gene YJL167W
  level of expressed mRNA in the presence/in the absence of chemical substance: 1.2
Yeast gene YJL172W
  The level of expressed mRNA in the presence of chemical substance/The level of expressed mRNA in the absence of chemical substance: 1.4
Yeast gene YJL216C
  level of expressed mRNA in the presence/in the absence of chemical substance: 1.1
Yeast gene YJL219W
  The level of expressed mRNA in the presence of chemical substance/The level of expressed mRNA in the absence of chemical substance: 2.3
Yeast gene YJR077C
  level of expressed mRNA in the presence/in the absence of chemical substance: 1.6
Yeast gene YJR137C
  The level of expressed mRNA in the presence of chemical substance/The level of expressed mRNA in the absence of chemical substance: 2.0
Yeast gene YJR143C
  level of expressed mRNA in the presence/in the absence of chemical substance: 1.3
Yeast gene YJR148W
  The level of expressed mRNA in the presence of chemical substance/The level of expressed mRNA in the absence of chemical substance: 0.6
